Patent US10800757B2, “Inhibitors of TRPC6” (Boehringer Ingelheim International GmbH, priority 2017, dated 2020)
Structures can show the parent of a compound that is named as a salt.

These compounds were tested against TRPC6 (Homo sapiens (Human), UniProt Q9Y210) (assay: High throughput screening assay: fluorescent calcium (Fluo4/AM) assay of TRPC6 channel activation by GSK1702934A in HEK293/TREx cells). Conditions: HEK293/TREx cells stably transfected with TRPC6; agonist GSK1702934A; 7 concentrations 20 μM to 0.027 μM, triplicate.
TRPC6, sequence (Q9Y210 whole entry, species assumed): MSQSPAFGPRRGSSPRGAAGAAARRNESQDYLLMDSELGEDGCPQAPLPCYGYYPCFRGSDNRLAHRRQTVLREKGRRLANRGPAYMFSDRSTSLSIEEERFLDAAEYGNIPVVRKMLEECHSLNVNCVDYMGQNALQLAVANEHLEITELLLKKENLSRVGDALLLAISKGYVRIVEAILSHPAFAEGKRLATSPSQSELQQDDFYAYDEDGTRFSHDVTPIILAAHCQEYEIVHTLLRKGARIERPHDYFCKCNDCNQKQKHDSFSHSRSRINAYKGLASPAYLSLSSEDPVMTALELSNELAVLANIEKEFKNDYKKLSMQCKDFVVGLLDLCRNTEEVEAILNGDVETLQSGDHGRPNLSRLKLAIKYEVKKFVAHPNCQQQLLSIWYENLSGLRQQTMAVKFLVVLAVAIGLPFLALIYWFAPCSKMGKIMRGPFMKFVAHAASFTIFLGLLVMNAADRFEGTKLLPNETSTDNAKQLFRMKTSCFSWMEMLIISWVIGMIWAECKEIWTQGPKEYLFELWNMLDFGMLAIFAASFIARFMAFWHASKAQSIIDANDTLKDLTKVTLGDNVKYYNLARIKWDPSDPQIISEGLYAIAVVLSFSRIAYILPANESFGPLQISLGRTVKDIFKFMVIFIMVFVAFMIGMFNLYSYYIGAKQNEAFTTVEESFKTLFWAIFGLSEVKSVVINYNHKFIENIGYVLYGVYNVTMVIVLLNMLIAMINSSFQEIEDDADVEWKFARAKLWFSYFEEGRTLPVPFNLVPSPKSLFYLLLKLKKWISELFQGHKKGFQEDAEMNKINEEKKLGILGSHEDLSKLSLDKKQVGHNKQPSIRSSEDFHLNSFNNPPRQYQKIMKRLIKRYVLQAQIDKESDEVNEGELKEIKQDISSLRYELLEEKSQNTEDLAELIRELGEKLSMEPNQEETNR
Format: cell-based
Summary of the method: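 HEK293/TREx cells stably carrying a TRPC6 construct were induced with 1 μg/ml tetracycline, plated at ~35,000 cells/well in 384-well CellBind plates, and loaded with 0.5 μM Fluo4/AM in Ringer's with 1% Pluronic F-127. Compounds were added 2 minutes before 125 nM GSK1702934A in high-Ca2+ Ringer. Fluorescence was read on a Hamamatsu FDSS 6000, normalized to controls, and fitted for IC50 from triplicates.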

Compound | IC50
COc1cc(C(=O)N2CCC(c3cnc(N)cc3OC)CC2)ncc1OCC(C)(C)C [Compound 59, (6-Amino-4-methoxy-3′,4′,5′,6′-tetrahydro-2′H-[3,4′]bipyridinyl-1′-yl)-[5-(2,2-dimethyl-propoxy)-4-methoxy-pyridin-2-yl]-methanone] | 340 nM
COc1cc(C(=O)N2CCN(c3ccc(N)nc3)C[C@@H]2CO)ncc1Oc1ccccc1 [Compound 81, [(R)-4-(6-Amino-pyridin-3-yl)-2-hydroxymethyl-piperazin-1-yl]-(4-methoxy-5-phenoxy-pyridin-2-yl)-methanone] | 71 nM
COc1cc(C(=O)N2CCC(c3cnc(N)cc3OC)CC2)ncc1OCC1CC(F)(F)C1 [Compound 45, (6-Amino-4-methoxy-3′,4′,5′,6′-tetrahydro-2′H-[3,4′]bipyridinyl-1′-yl)-[5-(3,3-difluoro-cyclobutylmethoxy)-4-methoxy-pyridin-2-yl]-methanone] | 150 nM
COc1cc(C(=O)N2CCC(c3cnc(N)cc3OC)CC2)ncc1OCC1CCC1(F)F (stereo not shown) [Compound 95, 5-(1-{5-[(2,2-Difluorocyclobutyl)-methoxy]-4-methoxy-pyridine-2-carbonyl}-piperidin-4-yl)-4-methoxypyridin-2-amine] | 445 nM
COc1cc(C(=O)N2CCC(c3cnc(N)cc3OC)CC2)ncc1OCCC1CC1 [Compound 48, (6-Amino-4-methoxy-3′,4′,5′,6′-tetrahydro-2′H-[3,4′]bipyridinyl-1′-yl)-[5-(2-cyclopropyl-ethoxy)-4-methoxy-pyridin-2-yl]-methanone] | 250 nM
COc1cc(C(=O)N2CCC(c3cnc(N)cc3OC)CC2)ncc1OCc1ccc(F)cc1 [Compound 32, (6-Amino-4-methoxy-3′,4′,5′,6′-tetrahydro-2′H-[3,4′]bipyridinyl-1′-yl)-[5-(4-fluoro-benzyloxy)-4-methoxy-pyridin-2-yl]-methanone] | 130 nM
COc1cc(C(=O)N2CCC(c3cnc(N)cc3OC)CC2)ncc1Oc1ccc(F)cc1 [Compound 4, (6-Amino-4-methoxy-3′,4′,5′,6′-tetrahydro-2′H-[3,4′]bipyridinyl-1′-yl)-[5-(4-fluoro-phenoxy)-4-methoxy-pyridin-2-yl]methanone] | < 27 nM
COc1cc(C(=O)N2CCC(c3nnc(N)cc3OC)CC2)ncc1Oc1ccccc1 [Compound 47, 5-Methoxy-6-[1-(4-methoxy-5-phenoxypyridine-2-carbonyl)piperidin-4-yl]pyridazin-3-amine] | 220 nM
COc1cc(C(=O)N2CCN(c3ccc(N)nc3)C[C@@H]2CO)ncc1Oc1ccc(F)cc1 [Compound 20, [(R)-4-(6-Amino-pyridin-3-yl)-2-hydroxymethyl-piperazin-1-yl]-[5-(4-fluoro-phenoxy)-4-methoxy-pyridin-2-yl]-methanone] | 42 nM
COc1ccc(Oc2cnc(C(=O)N3CCC(c4cc(OC)c(N)nn4)CC3)cc2OC)cc1 [Compound 60, [4-(6-Amino-5-methoxy-pyridazin-3-yl)-piperidin-1-yl]-[4-methoxy-5-(4-methoxy-phenoxy)-pyridin-2-yl]-methanone] | 440 nM
COc1cc(C(=O)N2CCC(c3cnc(N)cc3OC)CC2)ncc1OCC(C)C [Compound 39, 4-Methoxy-5-{1-[4-methoxy-5-(2-methylpropoxy)pyridine-2-carbonyl]piperidin-4-yl}-pyridin-2-amine trifluoroacetic acid] | 170 nM
COc1cc(C(=O)N2CCC(c3ccc(N)nn3)CC2)ncc1Oc1ccc(Cl)cc1 [Compound 34, [4-(6-Amino-pyridazin-3-yl)-piperidin-1-yl]-[5-(4-chloro-phenoxy)-4-methoxy-pyridin-2-yl]-methanone] | 85 nM
COc1cc(C(=O)N2CCC(c3ccc(N)nn3)CC2)ncc1Oc1ccc(OC(C)C)cc1 [Compound 6, [4-(6-Amino-pyridazin-3-yl)-piperidin-1-yl]-[5-(4-isopropoxy-phenoxy)-4-methoxy-pyridin-2-yl]-methanone] | 27 nM
COc1cc(C(=O)N2CCC(c3nnc(N)cc3C)CC2)ncc1Oc1ccc(C(F)(F)F)cc1 [Compound 90, 6-(1-{4-Methoxy-5-[4-(trifluoromethyl)phenoxy]pyridine-2-carbonyl}piperidin-4-yl)-5-methylpyridazin-3-amine trifluoroacetic acid] | 364 nM
COc1cc(C(=O)N2CCC(c3cnc(N)cc3OC)CC2)ncc1OC[C@H]1C[C@@H](C(F)(F)F)C1 [Compound 93, TFA salt of 4-Methoxy-5-[1-(4-methoxy-5-{[3-(trifluoromethyl)-cyclobutyl]methoxy}-pyridine-2-carbonyl)piperidin-4-yl]pyridin-2-amin] | 595 nM
COc1cc(C(=O)N2CCC(c3nnc(N)cc3C)CC2)ncc1Oc1ccccc1 [Compound 31, 6-[1-(4-Methoxy-5-phenoxypyridine-2-carbonyl)piperidin-4-yl]-5-methylpyridazin-3-amine trifluoroacetic acid] | 120 nM
COc1cc(C(=O)N2CCC(c3ccc(N)nn3)CC2)ncc1OCCC1CC1 [Compound 67, [4-(6-Amino-pyridazin-3-yl)-piperidin-1-yl]-[5-(2-cyclopropyl-ethoxy)-4-methoxy-pyridin-2-yl]-methanone] | 560 nM
COc1ccc(Oc2cnc(C(=O)N3CCC(c4ccc(N)nn4)CC3)cc2OC)cc1 [Compound 44, [4-(6-Amino-pyridazin-3-yl)-piperidin-1-yl]-[4-methoxy-5-(4-methoxy-phenoxy)-pyridin-2-yl]-methanone] | 140 nM
COc1cc(C(=O)N2CCC(c3nnc(N)cc3OC)CC2)ncc1Oc1ccc(C(F)(F)F)cc1 [Compound 56, [4-(6-Amino-4-methoxy-pyridazin-3-yl)-piperidin-1-yl]-[4-methoxy-5-(4-trifluoromethyl-phenoxy)-pyridin-2-yl]-methanone] | 290 nM
